From ChEMBL document CHEMBL1649420, “Identifying chelators for metalloprotein inhibitors using a fragment-based approach” (J Med Chem, 2011)

Columns and labels:
[1] = biological target: T1, Tyrosinase (Agaricus bisporus) (UniProt O42713); conditions: at 1 mM;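 also: inhibition measured at 10 min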
T1 sequence (whole entry): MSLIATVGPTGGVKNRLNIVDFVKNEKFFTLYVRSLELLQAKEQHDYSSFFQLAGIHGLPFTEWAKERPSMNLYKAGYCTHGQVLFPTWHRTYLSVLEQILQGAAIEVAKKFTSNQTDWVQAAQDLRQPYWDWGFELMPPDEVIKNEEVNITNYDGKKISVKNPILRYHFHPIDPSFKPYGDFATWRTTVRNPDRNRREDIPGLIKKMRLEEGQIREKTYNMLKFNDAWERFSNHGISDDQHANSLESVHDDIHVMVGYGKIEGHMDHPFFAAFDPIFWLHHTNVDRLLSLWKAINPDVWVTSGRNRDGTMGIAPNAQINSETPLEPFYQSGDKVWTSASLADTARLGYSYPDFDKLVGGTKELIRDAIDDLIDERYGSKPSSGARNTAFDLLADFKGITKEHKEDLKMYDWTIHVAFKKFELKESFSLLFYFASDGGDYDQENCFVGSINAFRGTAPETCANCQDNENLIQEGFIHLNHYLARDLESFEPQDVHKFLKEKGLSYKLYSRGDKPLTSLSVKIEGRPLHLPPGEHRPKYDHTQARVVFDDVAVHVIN

[2] = biological target: T2, Lethal factor (Bacillus anthracis) (UniProt P15917); conditions: at 1 mM
T2 sequence (whole entry): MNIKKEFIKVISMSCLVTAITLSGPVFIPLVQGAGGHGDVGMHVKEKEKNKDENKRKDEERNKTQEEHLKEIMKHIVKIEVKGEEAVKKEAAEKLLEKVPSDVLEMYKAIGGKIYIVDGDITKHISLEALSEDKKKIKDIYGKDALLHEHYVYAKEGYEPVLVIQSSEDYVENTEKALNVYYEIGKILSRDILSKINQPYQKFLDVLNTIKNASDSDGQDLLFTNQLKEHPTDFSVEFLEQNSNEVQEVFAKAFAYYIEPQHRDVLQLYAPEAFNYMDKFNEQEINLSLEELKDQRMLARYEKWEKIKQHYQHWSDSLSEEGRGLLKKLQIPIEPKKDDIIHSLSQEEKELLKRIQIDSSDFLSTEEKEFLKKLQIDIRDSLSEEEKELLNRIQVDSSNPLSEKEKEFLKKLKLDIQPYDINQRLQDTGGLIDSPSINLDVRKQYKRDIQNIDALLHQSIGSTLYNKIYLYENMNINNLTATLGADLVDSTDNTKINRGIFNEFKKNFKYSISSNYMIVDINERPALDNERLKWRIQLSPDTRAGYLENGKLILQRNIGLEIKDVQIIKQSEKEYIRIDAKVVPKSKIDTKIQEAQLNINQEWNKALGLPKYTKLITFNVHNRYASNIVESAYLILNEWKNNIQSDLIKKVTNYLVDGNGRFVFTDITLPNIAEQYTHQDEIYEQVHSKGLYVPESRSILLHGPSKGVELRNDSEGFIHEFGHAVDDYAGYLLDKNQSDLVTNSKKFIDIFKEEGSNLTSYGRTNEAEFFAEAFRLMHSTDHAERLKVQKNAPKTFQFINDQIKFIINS

[3] = biological target: T3, Interstitial collagenase (Homo sapiens) (UniProt P03956); conditions: at 1 mM;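 also: recombinant human enzyme, with inhibition measured after 30 min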
T3 sequence (whole entry): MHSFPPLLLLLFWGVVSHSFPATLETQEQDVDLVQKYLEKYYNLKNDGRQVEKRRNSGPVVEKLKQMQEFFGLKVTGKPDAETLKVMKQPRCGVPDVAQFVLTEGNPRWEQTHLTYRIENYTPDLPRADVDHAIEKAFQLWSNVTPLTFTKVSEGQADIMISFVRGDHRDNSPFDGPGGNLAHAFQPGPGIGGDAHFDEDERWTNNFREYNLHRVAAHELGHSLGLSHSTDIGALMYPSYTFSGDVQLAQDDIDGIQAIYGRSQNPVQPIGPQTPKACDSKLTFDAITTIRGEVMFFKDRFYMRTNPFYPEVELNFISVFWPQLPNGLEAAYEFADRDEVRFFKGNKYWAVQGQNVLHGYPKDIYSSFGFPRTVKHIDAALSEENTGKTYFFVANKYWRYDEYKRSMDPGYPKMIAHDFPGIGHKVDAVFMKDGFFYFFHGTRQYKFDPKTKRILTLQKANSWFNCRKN

[4] = biological target: 72 kDa type IV collagenase (Homo sapiens, UniProt P08253); conditions: at 1 mM;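 also: recombinant human enzyme, inhibition read after a 30 min incubation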
[5] = biological target: Stromelysin-1 (Homo sapiens) (UniProt P08254); conditions: at 1 mM;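 also: recombinant enzyme, inhibition read after a 30 min incubation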
[6] = biological target: Neutrophil collagenase (Homo sapiens) (UniProt P22894); conditions: at 1 mM;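 also: recombinant human MMP8 enzyme, percent inhibition read after 30 min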
[7] = biological target: Matrix metalloproteinase-9 (Homo sapiens) (UniProt P14780); conditions: at 1 mM;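 also: recombinant human MMP9, activity read after 30 min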
[8] = biological target: T4, Polyunsaturated fatty acid 5-lipoxygenase (Homo sapiens) (UniProt P09917); experiment: Inhibition of human recombinant 5-lipoxygenase at 1 mM after 10 mins by fluorescence assay
T4 sequence (whole entry): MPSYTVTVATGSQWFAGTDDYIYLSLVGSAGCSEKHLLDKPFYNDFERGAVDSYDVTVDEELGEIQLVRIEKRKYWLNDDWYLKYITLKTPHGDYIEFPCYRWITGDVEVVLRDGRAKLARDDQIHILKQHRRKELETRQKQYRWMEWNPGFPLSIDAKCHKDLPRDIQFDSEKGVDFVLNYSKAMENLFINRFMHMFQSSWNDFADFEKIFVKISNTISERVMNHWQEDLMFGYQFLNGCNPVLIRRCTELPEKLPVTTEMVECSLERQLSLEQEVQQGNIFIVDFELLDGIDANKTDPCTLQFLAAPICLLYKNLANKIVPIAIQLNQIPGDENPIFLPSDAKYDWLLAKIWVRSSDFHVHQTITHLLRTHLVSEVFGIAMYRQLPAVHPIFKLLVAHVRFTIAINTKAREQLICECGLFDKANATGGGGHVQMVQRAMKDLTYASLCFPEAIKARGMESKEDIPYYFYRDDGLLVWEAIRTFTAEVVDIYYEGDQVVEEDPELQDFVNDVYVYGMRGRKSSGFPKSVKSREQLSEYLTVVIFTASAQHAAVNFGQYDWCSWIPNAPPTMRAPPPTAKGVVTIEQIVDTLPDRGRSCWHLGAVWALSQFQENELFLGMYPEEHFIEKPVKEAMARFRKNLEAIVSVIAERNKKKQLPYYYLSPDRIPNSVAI

Sequence of 72 kDa type IV collagenase (P08253 110-660 limits assumed): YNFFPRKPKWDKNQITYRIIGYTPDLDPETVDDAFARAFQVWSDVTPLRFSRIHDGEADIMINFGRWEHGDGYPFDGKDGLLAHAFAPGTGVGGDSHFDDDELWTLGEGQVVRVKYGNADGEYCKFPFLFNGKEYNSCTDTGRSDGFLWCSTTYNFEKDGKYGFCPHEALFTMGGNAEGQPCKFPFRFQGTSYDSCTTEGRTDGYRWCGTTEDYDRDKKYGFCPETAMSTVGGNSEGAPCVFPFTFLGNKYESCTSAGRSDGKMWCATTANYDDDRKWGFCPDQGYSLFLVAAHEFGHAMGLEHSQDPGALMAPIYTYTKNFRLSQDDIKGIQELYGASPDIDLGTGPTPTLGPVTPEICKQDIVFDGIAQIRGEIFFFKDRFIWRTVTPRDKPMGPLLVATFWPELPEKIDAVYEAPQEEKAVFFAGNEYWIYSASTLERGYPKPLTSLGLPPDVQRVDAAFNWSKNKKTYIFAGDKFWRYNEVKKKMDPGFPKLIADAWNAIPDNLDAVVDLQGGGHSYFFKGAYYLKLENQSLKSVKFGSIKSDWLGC
Sequence of Neutrophil collagenase (Homo sapiens) (P22894 101-467 limits assumed): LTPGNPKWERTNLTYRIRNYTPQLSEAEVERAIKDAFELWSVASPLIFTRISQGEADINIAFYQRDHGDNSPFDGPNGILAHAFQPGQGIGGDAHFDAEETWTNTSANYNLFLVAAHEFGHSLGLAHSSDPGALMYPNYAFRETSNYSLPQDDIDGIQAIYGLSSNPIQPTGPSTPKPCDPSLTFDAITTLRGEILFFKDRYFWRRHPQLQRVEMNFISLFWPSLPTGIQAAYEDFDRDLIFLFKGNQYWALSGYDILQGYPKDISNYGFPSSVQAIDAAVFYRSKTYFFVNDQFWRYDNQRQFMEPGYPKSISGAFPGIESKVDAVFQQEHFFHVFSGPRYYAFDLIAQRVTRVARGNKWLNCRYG
Sequence of Matrix metalloproteinase-9 (Homo sapiens) (P14780 whole entry): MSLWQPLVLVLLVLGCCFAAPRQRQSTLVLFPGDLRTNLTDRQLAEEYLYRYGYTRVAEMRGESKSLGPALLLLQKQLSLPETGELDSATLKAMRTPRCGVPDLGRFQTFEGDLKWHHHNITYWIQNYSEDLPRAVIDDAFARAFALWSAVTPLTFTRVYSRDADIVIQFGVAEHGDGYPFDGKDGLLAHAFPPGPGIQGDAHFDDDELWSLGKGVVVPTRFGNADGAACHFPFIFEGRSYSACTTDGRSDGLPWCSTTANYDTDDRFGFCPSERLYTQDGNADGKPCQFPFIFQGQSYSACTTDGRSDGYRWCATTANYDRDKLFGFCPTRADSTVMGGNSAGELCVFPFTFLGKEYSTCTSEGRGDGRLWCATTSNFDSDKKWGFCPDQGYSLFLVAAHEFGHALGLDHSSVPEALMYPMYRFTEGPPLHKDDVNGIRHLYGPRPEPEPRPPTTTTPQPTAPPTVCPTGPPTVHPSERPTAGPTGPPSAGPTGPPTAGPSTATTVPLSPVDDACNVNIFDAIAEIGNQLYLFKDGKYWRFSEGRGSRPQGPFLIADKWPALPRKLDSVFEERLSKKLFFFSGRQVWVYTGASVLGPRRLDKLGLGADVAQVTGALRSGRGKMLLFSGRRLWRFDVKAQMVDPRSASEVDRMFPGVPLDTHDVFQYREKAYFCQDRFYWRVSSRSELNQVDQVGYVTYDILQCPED
Sequence of Stromelysin-1 (Homo sapiens) (P08254 100-477 limits assumed): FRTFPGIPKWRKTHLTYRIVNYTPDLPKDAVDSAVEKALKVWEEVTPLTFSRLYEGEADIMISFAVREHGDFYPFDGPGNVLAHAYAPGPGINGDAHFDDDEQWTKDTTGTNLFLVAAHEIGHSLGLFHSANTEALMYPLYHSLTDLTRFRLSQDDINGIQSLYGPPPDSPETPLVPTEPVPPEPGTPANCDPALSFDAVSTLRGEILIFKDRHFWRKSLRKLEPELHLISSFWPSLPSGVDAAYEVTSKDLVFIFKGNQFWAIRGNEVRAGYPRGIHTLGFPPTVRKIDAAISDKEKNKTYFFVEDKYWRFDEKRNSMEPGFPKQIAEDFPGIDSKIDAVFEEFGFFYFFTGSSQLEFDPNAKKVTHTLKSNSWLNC

Structure (SMILES)	inhibition [1] [%]	inhibition [2] [%]	inhibition [3] [%]	inhibition [4] [%]	inhibition [5] [%]	inhibition [6] [%]	inhibition [7] [%]	inhibition [8] [%]
Oc1ccc(Cl)c2cccnc12	0	44	39	60	45	73	1	–
Oc1ccc2ccccc2c1O	–	85	71	71	89	100	86	69
Oc1ccccc1-c1nc2ccccc2o1	3	0	11	1	4	28	–	–
Oc1nccc(S)n1	44	22	90	–	95	83	90	46
COc1ccccc1S	–	19	11	3	-8	26	17	–
Cc1c(O)c(=S)ccn1C	100	51	78	100	99	95	100	95
O=c1cc[nH]c(=S)[nH]1	36	33	52	47	47	37	44	–
CS(=O)(=O)Nc1cccc2cccnc12	–	–	57	84	64	75	59	13
CC(C)c1cccc(C(=O)O)c1O	91	-3	13	-2	5	3	9	-3
[O-][n+]1ccccc1S	81	23	78	91	100	90	77	70
CCc1c(O)c(=S)ccn1CC	100	55	81	100	99	94	100	97
Cc1ccc(C(=O)O)c(C(=O)O)n1	96	43	8	–	28	11	-10	22
Cc1cc(C)nc(S)n1	99	15	56	55	70	49	56	80
Cc1cc(=O)[nH]c(=S)[nH]1	31	29	40	26	37	31	27	70
Oc1ccccc1-c1nc2ccccc2s1	34	1	6	7	4	40	3	–
Cn1cccc(O)c1=S	93	56	89	100	90	96	96	93
O=C(O)c1ccc(O)c(O)c1	50	21	14	-8	0	13	-1	86
Oc1cc(O)nc(S)n1	99	18	30	17	38	25	15	72
O=c1ccc2ccccc2[nH]1	5	36	20	5	3	33	5	22
Nc1cccc2cccnc12	–	30	63	51	56	61	57	–
CCn1ccc(=S)c(O)c1C	100	60	98	100	99	93	100	96
O=C1C=C(O)C(=O)c2ccccc21	69	100	86	84	84	86	85	100
